Reference: patent publication US20120316105A1, “Polymyxin Derivates Useful As Antibacterial Agents” (priority 2011, published 2012)
Like-named read-outs stand apart in the source and are kept apart here. Bridge positions count the residues as written; N and C are the ends. Square brackets hold non-standard residues; d marks the D form. Peptide text beside a SMILES is read from it. * marks the point of attachment. Isonicotinoyl(2-Ph) = O=C(c1ccnc(-c2ccccc2)c1)*; X1 = CC[C@H](C)CCCCC(=O)*; Dab = NCC[C@H](N)C(=O)O; Dap = NC[C@H](N)C(=O)O

How the values were obtained:
[1] = test system: AB-1649, polymyxin-resistant clinical isolate of Acinetobacter baumannii; assay type: cell-based
Procedure, shortened: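 MIC and MBC were measured by CLSI broth dilution methods (M7-A8, M100-S20, M26-A) against a polymyxin-resistant clinical isolate and reported in mg/L. Compounds were tested as trifluoroacetate salts, with one exception tested as the sulfate.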

[2] = test system: EC-1, mouse virulent strain of Escherichia coli; assay type: cell-based; conditions: E. coli EC-1; overnight incubation, lower of duplicate values; trifluoroacetate salt (Example 1 and PMB sulfate)
Procedure, shortened: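 Broth dilution per CLSI with 2-fold concentration steps and overnight incubation. MIC is the lowest concentration visibly inhibiting growth versus drug-free control, run in duplicate with the lower value reported. Duplicates differing by >2-fold were repeated, and control strains and reference compounds had to fall within range.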

[3] = test system: PA-1646, polymyxin-resistant clinical isolate of Pseudomonas aeruginosa; assay type: cell-based
Procedure, shortened: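 Broth dilution MIC and bactericidal (MBC) testing per CLSI methods (M7-A8, M100-S20, M26-A) against polymyxin-resistant clinical P. aeruginosa isolate PA-1646. Compounds tested as trifluoroacetate salts, one as sulfate salt; values in mg/L.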

[4] = Cytotoxicity assay (LDH release), hRPTEC; assay type: cell-based, human; conditions: human
Procedure, shortened: (§1)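 hRPTEC grown 72 h in REGM, then exposed to compounds at 100, 67, 44, 30, 20 and 13 micromolar for 24 h at 37° C, 5% CO2. LDH released into supernatant measured; TC50 (micromolar) derived. Compounds tested as trifluoroacetate salts unless otherwise noted.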

[5] = test system: Human Renal Proximal Tubule Epithelial cells (hRPTEC); assay: Cytotoxicity assay (LDH release), hRPTEC; assay type: cell-based
Procedure, shortened: as §1

[6] = test system: PA-1646, polymyxin-resistant clinical isolate of Pseudomonas aeruginosa; assay type: cell-based; remark: listed apart in the source
Procedure, shortened: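 Broth dilution MIC per CLSI with 2-fold concentration steps, read visually after overnight incubation as lowest concentration inhibiting growth; duplicates within 2-fold, lower value reported, with QC strains and reference compounds. Compounds tested as trifluoroacetate salts, polymyxin B as sulfate.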

[7] = test system: Pseudomonas aeruginosa strain PA01; assay type: cell-based
Procedure, shortened: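 CLSI broth dilution against P. aeruginosa PA01 with two-fold concentration steps and overnight incubation; MIC is lowest concentration visibly inhibiting growth versus drug-free control, in mg/L. Compounds tested as trifluoroacetate salts, in duplicate, lower value reported if within 2-fold; control organisms and reference compounds included.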

[8] = test system: AB-1649, polymyxin-resistant clinical isolate of Acinetobacter baumannii; assay type: cell-based; remark: listed apart in the source
Procedure, shortened: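 Broth dilution MIC per CLSI against the polymyxin-resistant A. baumannii isolate, 2-fold dilutions, overnight incubation, visual read of lowest concentration inhibiting growth. Run in duplicate, lower value reported when within 2-fold; MBC per CLSI M26-A guideline.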

[9] = test system: AB-3167, clinical isolate of Acinetobacter baumannii; assay type: cell-based
Procedure, shortened: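 Broth dilution MIC per CLSI (M7-A8, M100-S20, M26-A for bactericidal), 2-fold dilution series, overnight incubation, visual read of lowest concentration inhibiting growth versus drug-free control. Duplicates run; lower value reported if within 2-fold, otherwise repeated. Compounds tested as trifluoroacetate salts; QC strains and reference compounds required in range.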

[10] = test system: KP-5016, ESBL+ clinical isolate of Klebsiella pneumoniae (SHV-5); assay: Minimum inhibitory concentration (MIC, CLSI), KP-5016; assay type: cell-based; conditions: K. pneumoniae KP-5016; overnight incubation, lower of duplicate values; trifluoroacetate salt (Example 1 and PMB sulfate)
Procedure: (§2) Minimum bactericidal concentration (MBC, mg/L), minimum inhibitory concentration (MIC, mg/L), and human renal proximal tubule epithelial cell line cytotoxicity concentration 50% (hRPTEC, TC50, micromolar) for compounds of Formula I are listed in Table 2. The compounds of Formula I were tested as the corresponding trifluoroacetate salt except for Example 1 which was tested as the sulfate salt. For Table 2 below: PMB=polymyxin B as the sulfate salt (Bedford Laboratories, pharmaceutical grade); PMB1=polymyxin B1 as the trifluoroacetate salt; Nona=polymyxin B nonapeptide as the trifluoroacetate salt. PMB1 and Nona were prepared using the solid phase methodology described in the experimental section herein.
(§3) The in vitro antibacterial activity of compounds of Formula I was evaluated by MIC testing according to Clinical and Laboratory Standards Institute (CLSI). See: Clinical and Laboratory Standards Institute. Methods for Dilution Antimicrobial Susceptibility Tests for Bacteria that Grow Aerobically; Approved Standard-Eighth Edition. CLSI document M7-A8 [ISBN 1-56238-689-1]. Clinical and Laboratory Standards Institute, 940 West Valley Road, Suite 1400, Wayne, Pa. 19087-1898 USA, 2006; also Clinical and Laboratory Standards Institute. Performance Standards for Antimicrobial Susceptibility Testing; Twentieth Informational Supplement. CLSI document M100-S20 [ISBN 1-56238-716-2]. Clinical and Laboratory Standards Institute. Methods for Determining Bactericidal Activity of Antimicrobial Agents; Approved Guideline. CLSI document M26-A (ISBN 1-56238-384-1). CLSI, 940 West Valley Road, Suite 1400, Wayne, Pa. 19087-1898 USA, 1999.
(§4) The MIC determination is a standard laboratory method for evaluating the antibacterial activity of a compound. The MIC represents the lowest drug concentration that inhibits visible growth of bacteria following overnight incubation. […] Typically, the drug concentration range is broken down into 2-fold increments (e.g. 0.06 mg/L, 0.12 mg/L, 0.25 mg/L, 0.50 mg/L, 1.0 mg/L, etc.) and the various drug concentrations are all individually incubated overnight with approximately the same number of bacteria. The MIC is then determined by visually inspecting the drug effect at each concentration, and identifying the lowest drug concentration that has inhibited bacterial growth as compared to the drug free control. Typically, bacteria continue to grow at drug concentrations lower than the MIC and don't grow at concentrations at and above the MIC.
(§5) The MIC values described in Table 2 below were derived from assays wherein each test compound was evaluated in duplicate. In cases where the duplicate values varied by 0-2-fold, the lower of the two values was reported below. Generally speaking, if the duplicate values varied by more than 2-fold, the assay was considered non-valid and was repeated until the variation between duplicate runs was ≦2-fold. In line with the CLSI guidelines referred to above, both control organisms and reference compounds were utilized in each MIC assay to provide proper quality control. MIC values generated with these control organisms and reference compounds were required to fall within a defined range for the assay to be considered valid and be included herein. Those skilled in the art will recognize that MIC values can and do vary from experiment to experiment. Generally speaking, it should be recognized that MIC values often vary +/−2-fold from experiment to experiment. While a single MIC is reported for each compound and each microorganism, the reader should not conclude that each compound was only tested once. Several of the compounds were subjected to multiple tests. The data reported in Table 2 is reflective of the compounds relative activity and different MICs may have been generated on these occasions in line with the guidelines described above.
The following bacterial strains were used in these MIC determinations: […]

[11] = test system: KP-3700, ESBL+ clinical isolate of Klebsiella pneumoniae; assay: Minimum inhibitory concentration (MIC, CLSI), KP-3700; assay type: cell-based; conditions: K. pneumoniae KP-3700; overnight incubation, lower of duplicate values; trifluoroacetate salt (Example 1 and PMB sulfate)
Procedure: as §2, §3, §4, §5
The following bacterial strains were used in these MIC determinations:
KP-3700 is an ESBL+clinical isolate of Klebsiella pneumoniae obtained in 2006; and […]

[12] = AB-1649, polymyxin-resistant clinical isolate of
[13] = PA-1646, polymyxin-resistant clinical isolate of
[14] = A. baumannii AB-3167, overnight incubation, lower of duplicate values, trifluoroacetate salt (Example 1 and PMB sulfate)

| Compound | AB-1649 MBC [1, 12] [mg/L] | EC-1 MIC [2] [mg/L] | PA-1646 MBC [3, 13] [mg/L] | CC50 at 24 h [4] [µM] | reduced human renal cytotoxicity compared with PMB [5] | PA-1646 MIC [6, 13] [mg/L] | PA01 MIC ([7]; strain) [mg/L] | AB-1649 MIC [8, 12] [mg/L] | AB-3167 MIC ([9]; AB-3167, clinical isolate of) [mg/L] | AB-3167 MIC [9, 14] [mg/L] | KP-5016 MIC [10] [mg/L] | AB-1649 MBC ([1]; A. baumannii AB-1649, tested as trifluoroacetate salt (Example 1 and PMB as sulfate salt)) [mg/L] | PA-1646 MBC ([3]; P. aeruginosa PA-1646, tested as trifluoroacetate salt (Example 1 and PMB as sulfate salt)) [mg/L] | KP-3700 MIC [11] [mg/L] | CC50 ([5]; hRPTEC, 24 hours treatment, LDH release, Toxic Concentration 50%, read-out: hRPTEC TC50) [µM] | PA-1646 MIC ([6]; P. aeruginosa PA-1646, overnight incubation, lower of duplicate values, trifluoroacetate salt (Example 1 and PMB sulfate)) [mg/L] | PA01 MIC ([7]; P. aeruginosa PA01, overnight incubation, lower of duplicate values, trifluoroacetate salt (Example 1 and PMB sulfate)) [mg/L] | AB-1649 MIC ([8]; A. baumannii AB-1649, overnight incubation, lower of duplicate values, trifluoroacetate salt (Example 1 and PMB sulfate)) [mg/L] |
| --- | --- | --- | --- | --- | --- | --- | --- | --- | --- | --- | --- | --- | --- | --- | --- | --- | --- | --- |
| CC(C)C[C@@H]1NC(=O)[C@@H](Cc2ccccc2)NC(=O)[C@H](CCN)NC(=O)[C@@H](NC(=O)[C@H](CN)NC(=O)[C@@H](NC(=O)[C@H](CCN)NC(=O)c2ccnc(-c3ccccc3)c2)[C@@H](C)O)CCNC(=O)[C@H]([C@@H](C)O)NC(=O)[C@H](CCN)NC(=O)[C@H](CCN)NC1=O [Example 1] ({Isonicotinoyl(2-Ph)}-[Dab]T[Dap][Dab][Dab][dF]L[Dab][Dab]T; lactam 4-C) | 1 | 0.125 | 4 | 95 | 4-5 fold | 2 | 0.25 | 1 | 0.25 |  |  |  |  |  |  |  |  |  |
| CC[C@H](C)CCCCC(=O)N[C@@H](CCN)C(=O)N[C@H](C(=O)N[C@@H](CN)C(=O)N[C@H]1CCNC(=O)[C@H]([C@@H](C)O)NC(=O)[C@H](CCN)NC(=O)[C@H](CCN)NC(=O)[C@H](CC(C)C)NC(=O)[C@@H](Cc2ccccc2)NC(=O)[C@H](CCN)NC1=O)[C@@H](C)O [Example 43] (X1-[Dab]T[Dap][Dab][Dab][dF]L[Dab][Dab]T; lactam 4-C) | 4 | 0.125 | 2 | 72 | 3-4 fold | 1 | 0.5 | 4 |  | 0.125 |  |  |  |  |  |  |  |  |
| polymyxin B [PMB, reference compound] |  | 0.125 |  |  |  |  |  |  |  | 0.25 | 32 | 8 | 32 | 0.25 | 20 | 8 | 0.5 | 8 |
